ChEMBL document CHEMBL6127029, “Glutathione-dependent degradation of SMARCA2/4 for targeted lung cancer therapy with improved selectivity” (Eur J Med Chem, 2024)
Active and inactive are the calls of the source. The calls are words filed in the database; no cut-off is given here.

Assays:
[1] = target: T1, von Hippel-Lindau disease tumor suppressor/SWI/SNF-related matrix-associated actin-dependent regulator of chromatin subfamily A member 2 (Homo sapiens) (UniProt P51531+P40337); experiment: PROTAC activity at VHL/SMARCA2 in human A549 cells assessed as induction of SMARCA2 degradation at 1 uM incubated for 24 hrs by Western blotting analysis; format: cell-based
[2] = target: T1, von Hippel-Lindau disease tumor suppressor/SWI/SNF-related matrix-associated actin-dependent regulator of chromatin subfamily A member 2 (Homo sapiens); experiment: PROTAC activity at VHL/SMARCA2 in human HEK-293T cells assessed as induction of SMARCA2 degradation at 1 uM by Western blotting analysis; format: cell-based; conditions: TDE = time-dependent effect
[3] = target: T2, von Hippel-Lindau disease tumor suppressor/SWI/SNF-related matrix-associated actin-dependent regulator of chromatin subfamily A member 4 (Homo sapiens) (UniProt P51532+P40337); experiment: PROTAC activity at VHL/SMARCA4 in human HEK-293T cells assessed as induction of SMARCA4 degradation at 1 uM by Western blotting analysis; format: cell-based; conditions: TDE = time-dependent effect
[4] = target: T1, von Hippel-Lindau disease tumor suppressor/SWI/SNF-related matrix-associated actin-dependent regulator of chromatin subfamily A member 2 (Homo sapiens); experiment: PROTAC activity at VHL/SMARCA2 in human HuLEC-5a cells assessed as induction of SMARCA2 degradation at 1 uM by Western blotting analysis; format: cell-based; conditions: TDE = time-dependent effect
[5] = target: T2, von Hippel-Lindau disease tumor suppressor/SWI/SNF-related matrix-associated actin-dependent regulator of chromatin subfamily A member 4 (Homo sapiens); experiment: PROTAC activity at VHL/SMARCA4 in human HuLEC-5a cells assessed as induction of SMARCA4 degradation at 1 uM by Western blotting analysis; format: cell-based; conditions: TDE = time-dependent effect
[6] = target: T1, von Hippel-Lindau disease tumor suppressor/SWI/SNF-related matrix-associated actin-dependent regulator of chromatin subfamily A member 2 (Homo sapiens); experiment: PROTAC activity at VHL/SMARCA2 in human HEK-293T cells assessed as induction of SMARCA2 degradation at 1 uM incubated for 24 hrs by Western blotting analysis relative to control; format: cell-based
[7] = target: T2, von Hippel-Lindau disease tumor suppressor/SWI/SNF-related matrix-associated actin-dependent regulator of chromatin subfamily A member 4 (Homo sapiens); experiment: PROTAC activity at VHL/SMARCA4 in human HEK-293T cells assessed as induction of SMARCA4 degradation at 1 uM incubated for 24 hrs by Western blotting analysis relative to control; format: cell-based
[8] = target: T1, von Hippel-Lindau disease tumor suppressor/SWI/SNF-related matrix-associated actin-dependent regulator of chromatin subfamily A member 2 (Homo sapiens); experiment: PROTAC activity at VHL/SMARCA2 in human A549 cells assessed as induction of SMARCA2 degradation at 1 uM by Western blotting analysis; format: cell-based; conditions: TDE = time-dependent effect
[9] = target: T1, von Hippel-Lindau disease tumor suppressor/SWI/SNF-related matrix-associated actin-dependent regulator of chromatin subfamily A member 2 (Homo sapiens); experiment: PROTAC activity at VHL/SMARCA2 in human NCI-H1299 cells assessed as induction of SMARCA2 degradation at 1 uM by Western blotting analysis; format: cell-based; conditions: TDE = time-dependent effect
[10] = target: T1, von Hippel-Lindau disease tumor suppressor/SWI/SNF-related matrix-associated actin-dependent regulator of chromatin subfamily A member 2 (Homo sapiens); experiment: PROTAC activity at VHL/SMARCA2 in human A549 cells assessed as induction of SMARCA2 degradation at 1 uM pretreated with MG132 followed by compound addition and measured after 8 hrs by Western blotting analysis; format: cell-based
[11] = target: T1, von Hippel-Lindau disease tumor suppressor/SWI/SNF-related matrix-associated actin-dependent regulator of chromatin subfamily A member 2 (Homo sapiens); experiment: PROTAC activity at VHL/SMARCA2 in human A549 cells assessed as induction of SMARCA2 degradation at 1 uM pretreated with MLN4924 followed by compound addition and measured after 8 hrs by Western blotting analysis; format: cell-based
[12] = target: T1, von Hippel-Lindau disease tumor suppressor/SWI/SNF-related matrix-associated actin-dependent regulator of chromatin subfamily A member 2 (Homo sapiens); experiment: PROTAC activity at VHL/SMARCA2 in human 786-0 cells harboring mutated VHL assessed as induction of SMARCA2 degradation at 0.1 to 5 uM incubated for 8 hrs by Western blotting analysis; format: cell-based; conditions: dose 0.1-5 µM
[13] = target: T2, von Hippel-Lindau disease tumor suppressor/SWI/SNF-related matrix-associated actin-dependent regulator of chromatin subfamily A member 4 (Homo sapiens); experiment: PROTAC activity at VHL/SMARCA4 in human 786-0 cells harboring mutated VHL assessed as induction of SMARCA4 degradation at 0.1 to 5 uM incubated for 8 hrs by Western blotting analysis; format: cell-based; conditions: dose 0.1-5 µM
[14] = target: T1, von Hippel-Lindau disease tumor suppressor/SWI/SNF-related matrix-associated actin-dependent regulator of chromatin subfamily A member 2 (Homo sapiens); experiment: PROTAC activity at VHL/SMARCA2 in human NCI-H1299 cells harboring shRNA mediated VHL knockdown assessed as induction of SMARCA2 degradation at 0.1 to 2 uM incubated for 8 hrs by Western blotting analysis; format: cell-based; conditions: dose 0.1-2 µM
[15] = target: T1, von Hippel-Lindau disease tumor suppressor/SWI/SNF-related matrix-associated actin-dependent regulator of chromatin subfamily A member 2 (Homo sapiens); experiment: PROTAC activity at VHL/SMARCA2 in human A549 cells harboring shRNA mediated VHL knockdown assessed as induction of SMARCA2 degradation at 0.1 to 2 uM incubated for 8 hrs by Western blotting analysis; format: cell-based; conditions: dose 0.1-2 µM
[16] = Cytotoxicity against human HuLEC-5a cells assessed as inhibition of cell growth incubated for 3 days by MTT assay; format: toxicity, cell-based
[17] = test system: NCI-H1299; experiment: Cytotoxicity against human NCI-H1299 cells assessed as inhibition of cell growth incubated for 3 days by MTT assay; format: functional, cell-based; conditions: NCI-H1299, 72 h
[18] = test system: A549; experiment: Cytotoxicity against human A549 cells assessed as inhibition of cell growth incubated for 3 days by MTT assay; format: functional, cell-based; conditions: A549, 72 h
[19] = test system: A549; experiment: Inhibition of cell migration in human A549 cells at 10 uM incubated for 36 hrs by scratch wound healing based fluorescent microscopic analysis; format: functional
[20] = test system: HuLEC-5a; experiment: Inhibition of cell migration in human HuLEC-5a cells at 10 uM incubated for 36 hrs by scratch wound healing based fluorescent microscopic analysis; format: functional
[21] = Stability of the compound in cell culture medium containing 10% fetal bovine serum at 50 uM incubated for 12 hrs by HPLC analysis; format: physicochemical, cell-free; conditions: cattle
[22] = Stability of the compound in cell culture medium containing 10% fetal bovine serum assessed as drug degradation at 50 uM incubated for 12 hrs by HPLC analysis; format: physicochemical, cell-free; conditions: cattle, read-out: Drug degradation

T1 sequence (P40337 whole entry, looked up): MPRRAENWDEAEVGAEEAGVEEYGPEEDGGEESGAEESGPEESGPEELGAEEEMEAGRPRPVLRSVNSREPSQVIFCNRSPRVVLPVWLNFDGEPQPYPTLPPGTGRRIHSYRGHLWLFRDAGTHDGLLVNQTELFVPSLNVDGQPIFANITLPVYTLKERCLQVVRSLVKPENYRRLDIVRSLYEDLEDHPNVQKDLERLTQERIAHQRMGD
T1 sequence (P51531 whole entry, looked up): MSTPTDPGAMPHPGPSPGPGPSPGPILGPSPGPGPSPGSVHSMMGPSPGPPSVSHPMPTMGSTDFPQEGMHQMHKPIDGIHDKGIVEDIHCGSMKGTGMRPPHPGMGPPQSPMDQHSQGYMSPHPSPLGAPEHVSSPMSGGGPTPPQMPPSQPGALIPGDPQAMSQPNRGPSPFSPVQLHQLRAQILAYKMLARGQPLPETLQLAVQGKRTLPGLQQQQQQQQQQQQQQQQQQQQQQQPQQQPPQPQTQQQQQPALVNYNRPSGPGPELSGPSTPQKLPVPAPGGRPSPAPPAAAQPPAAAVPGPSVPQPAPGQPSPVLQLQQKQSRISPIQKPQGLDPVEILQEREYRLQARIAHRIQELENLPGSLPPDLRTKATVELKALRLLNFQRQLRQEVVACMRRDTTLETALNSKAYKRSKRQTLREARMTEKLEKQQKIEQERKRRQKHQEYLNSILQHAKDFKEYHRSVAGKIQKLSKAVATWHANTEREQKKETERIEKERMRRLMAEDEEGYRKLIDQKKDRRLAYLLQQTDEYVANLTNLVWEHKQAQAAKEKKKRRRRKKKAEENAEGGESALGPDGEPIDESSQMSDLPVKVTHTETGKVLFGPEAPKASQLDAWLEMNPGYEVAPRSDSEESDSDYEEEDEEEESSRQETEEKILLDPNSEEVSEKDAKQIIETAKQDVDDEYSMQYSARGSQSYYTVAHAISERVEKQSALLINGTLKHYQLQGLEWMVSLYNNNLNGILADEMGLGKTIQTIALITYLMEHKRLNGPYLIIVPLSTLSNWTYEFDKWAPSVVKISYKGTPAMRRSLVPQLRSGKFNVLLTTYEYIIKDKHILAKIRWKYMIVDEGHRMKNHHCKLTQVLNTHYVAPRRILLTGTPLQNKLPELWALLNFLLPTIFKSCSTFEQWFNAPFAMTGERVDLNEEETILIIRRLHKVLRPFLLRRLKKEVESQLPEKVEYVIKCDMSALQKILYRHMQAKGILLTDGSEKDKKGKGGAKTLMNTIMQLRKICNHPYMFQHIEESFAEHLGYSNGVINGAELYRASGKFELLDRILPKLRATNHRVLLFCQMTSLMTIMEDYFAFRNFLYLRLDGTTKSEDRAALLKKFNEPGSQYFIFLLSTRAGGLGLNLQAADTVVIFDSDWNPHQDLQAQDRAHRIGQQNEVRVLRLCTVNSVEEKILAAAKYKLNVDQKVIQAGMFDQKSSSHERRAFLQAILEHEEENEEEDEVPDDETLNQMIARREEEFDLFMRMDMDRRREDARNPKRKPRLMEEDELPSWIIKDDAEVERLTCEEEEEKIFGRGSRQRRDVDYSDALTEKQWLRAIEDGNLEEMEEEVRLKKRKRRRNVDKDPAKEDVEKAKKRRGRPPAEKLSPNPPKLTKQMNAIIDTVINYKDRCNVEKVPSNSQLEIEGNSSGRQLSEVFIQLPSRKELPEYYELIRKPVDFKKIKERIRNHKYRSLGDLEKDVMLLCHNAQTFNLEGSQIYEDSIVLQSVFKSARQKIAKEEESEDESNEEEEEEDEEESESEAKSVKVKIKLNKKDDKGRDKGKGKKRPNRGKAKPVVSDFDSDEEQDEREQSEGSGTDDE
T2 sequence (P40337 whole entry, looked up): as the sequence (P40337 whole entry, looked up) above
T2 sequence (P51532 whole entry, looked up): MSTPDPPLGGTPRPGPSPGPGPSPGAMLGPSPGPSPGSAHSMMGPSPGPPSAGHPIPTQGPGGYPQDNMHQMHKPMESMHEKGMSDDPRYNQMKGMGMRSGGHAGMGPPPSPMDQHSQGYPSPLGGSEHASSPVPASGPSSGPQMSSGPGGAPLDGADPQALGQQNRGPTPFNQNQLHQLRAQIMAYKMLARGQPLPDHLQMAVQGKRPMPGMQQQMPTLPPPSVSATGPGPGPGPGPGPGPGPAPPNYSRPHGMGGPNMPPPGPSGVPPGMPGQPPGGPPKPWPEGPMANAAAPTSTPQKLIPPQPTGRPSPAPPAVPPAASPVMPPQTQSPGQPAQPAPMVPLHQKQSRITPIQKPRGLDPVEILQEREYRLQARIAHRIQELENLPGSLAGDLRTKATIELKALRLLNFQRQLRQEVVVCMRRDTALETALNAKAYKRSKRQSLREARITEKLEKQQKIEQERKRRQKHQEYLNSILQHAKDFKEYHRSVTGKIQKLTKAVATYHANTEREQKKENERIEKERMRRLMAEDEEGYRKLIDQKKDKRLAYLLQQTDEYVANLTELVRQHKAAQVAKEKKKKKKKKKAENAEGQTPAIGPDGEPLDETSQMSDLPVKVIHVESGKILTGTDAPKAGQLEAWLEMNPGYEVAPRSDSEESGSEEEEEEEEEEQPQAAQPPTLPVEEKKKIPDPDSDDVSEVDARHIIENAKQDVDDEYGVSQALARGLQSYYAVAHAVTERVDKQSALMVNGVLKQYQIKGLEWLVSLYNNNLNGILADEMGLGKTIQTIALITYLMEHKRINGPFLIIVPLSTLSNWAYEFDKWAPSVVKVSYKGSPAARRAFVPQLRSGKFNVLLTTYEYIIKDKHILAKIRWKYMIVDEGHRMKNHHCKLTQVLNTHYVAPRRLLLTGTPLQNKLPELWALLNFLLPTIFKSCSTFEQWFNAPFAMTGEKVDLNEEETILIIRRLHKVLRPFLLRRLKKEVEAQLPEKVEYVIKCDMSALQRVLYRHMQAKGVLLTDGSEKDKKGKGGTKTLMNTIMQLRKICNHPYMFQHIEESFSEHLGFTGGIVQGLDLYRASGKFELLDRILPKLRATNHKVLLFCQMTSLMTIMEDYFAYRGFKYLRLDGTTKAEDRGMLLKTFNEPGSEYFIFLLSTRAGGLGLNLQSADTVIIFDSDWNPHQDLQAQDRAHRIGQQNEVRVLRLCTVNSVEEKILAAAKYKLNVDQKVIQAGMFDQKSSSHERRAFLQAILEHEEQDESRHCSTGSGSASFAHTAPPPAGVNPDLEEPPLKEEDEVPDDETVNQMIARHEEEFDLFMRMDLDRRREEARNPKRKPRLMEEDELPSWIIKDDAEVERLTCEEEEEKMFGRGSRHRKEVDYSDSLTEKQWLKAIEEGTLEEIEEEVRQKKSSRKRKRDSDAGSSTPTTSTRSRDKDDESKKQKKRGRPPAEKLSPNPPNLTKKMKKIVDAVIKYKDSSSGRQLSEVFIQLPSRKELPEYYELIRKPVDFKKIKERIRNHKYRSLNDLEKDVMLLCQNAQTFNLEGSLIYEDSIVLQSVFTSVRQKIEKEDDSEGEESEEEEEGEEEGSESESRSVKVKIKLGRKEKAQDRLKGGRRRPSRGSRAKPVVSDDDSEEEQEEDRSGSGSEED

Which Activity [1] does the source give for `Cc1ncsc1-c1ccc(CNC(=O)[C@@H]2C[C@@H](O)CN2C(=O)[C@@H](NC(=O)CN2CCN(c3cc(-c4ccccc4O)nnc3N)CC2)C(C)(C)C)cc1` here?
The Activity was “Active”.

And the Activity [2]?
Its Activity is “Tde”.

And the Activity [3]?
The Activity was “Tde”.

And the Activity [4]?
Its Activity is “Tde”.

And the Activity [5]?
The Activity was “Tde”.

And the Activity [6]?
Its Activity is less than 10%.

What about the Activity [7] of the same compound?
Its Activity is less than 10%.

What about the Activity [8] of the same compound?
Its Activity is “Tde”.

What about the Activity [9] of the same compound?
The Activity was “Tde”.

And the Activity [10]?
The Activity was “inactive”.

And the Activity [11]?
Its Activity is “inactive”.

What about the Activity [12] of the same compound?
Its Activity is “inactive”.

And the Activity [13]?
The Activity was “inactive”.

And the Activity [14]?
The Activity was “inactive”.

And the Activity [15]?
Its Activity is “inactive”.

And the IC50 at 3 days [16]?
Its IC50 at 3 days is 24500 nM.

What about the IC50 [17] of the same compound?
The IC50 was 1400 nM.

And the IC50 [18]?
Its IC50 is 1300 nM.

What about the inhibition [19] of the same compound?
Its inhibition is “Active”.

What about the inhibition [20] of the same compound?
Its inhibition is “inactive”.

Which results are given for `Cc1ncsc1-c1ccc(CNC(=O)[C@@H]2C[C@@H](O)CN2C(=O)[C@@H](NC(=O)CN2CCN(c3cc(-c4ccccc4OS(=O)(=O)c4ccc([N+](=O)[O-])c(F)c4)nnc3N)CC2)C(C)(C)C)cc1`?
Stability [21]: Unstable; degraded at 12 h, 50 µM [22]: > 60%
